Test results from article PMC7558026, “Exploring and applying the substrate promiscuity of a C-glycosyltransferase in the chemo-enzymatic synthesis of bioactive C-glycosides” (Nature Communications, 2020).
“And” between values parts separate entries of the source, which are not always exact repeats. Equal values may be shown once.

Key:
AbCGT [1] = target: AbCGT (Aloe vera, UniProt A0A7G9P699); assay: Glycosyltransferase activity assay, purified AbCGT (wild type) with aglycon acceptors and UDP-Glc; assay type: biochemical, Aloe barbadensis; conditions: aglycon acceptor with UDP-Glc, pH 7.4, 30 °C, up to 12 h; Reaction-1 to -3
Chain of AbCGT (Aloe vera, UniProt A0A7G9P699) (A0A7G9P699 entry or part of it): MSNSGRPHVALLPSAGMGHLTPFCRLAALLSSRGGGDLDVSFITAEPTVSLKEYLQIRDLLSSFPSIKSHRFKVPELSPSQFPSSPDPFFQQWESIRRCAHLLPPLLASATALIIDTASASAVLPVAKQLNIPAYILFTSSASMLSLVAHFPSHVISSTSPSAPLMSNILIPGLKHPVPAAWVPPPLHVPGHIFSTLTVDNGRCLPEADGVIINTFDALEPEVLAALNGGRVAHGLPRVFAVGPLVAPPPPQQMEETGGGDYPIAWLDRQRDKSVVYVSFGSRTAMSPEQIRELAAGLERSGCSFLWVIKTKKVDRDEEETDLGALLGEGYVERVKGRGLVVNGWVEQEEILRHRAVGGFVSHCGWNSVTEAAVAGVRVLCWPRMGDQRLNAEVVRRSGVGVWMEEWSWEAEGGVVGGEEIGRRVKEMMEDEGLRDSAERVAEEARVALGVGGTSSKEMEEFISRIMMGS
Protocol: Due to the instability of some acceptors in the buffer of pH 11.0, the reactions were performed under the physiological conditions (pH 7.4, 30 °C) to compare the catalytic activities of AbGT27 with different substrates under the same conditions. The reactions were performed at 30 °C for up to 12 h and terminated by the addition of 200 μL of ice-cold methanol. Subsequently, samples were centrifuged at 15,000 × g for 30 min to collect the supernatant, and aliquots were analyzed by HPLC-UV/ESIMS. […] The gradient programs were used for the analysis of the reactions (Supplementary Table 6). The conversion rates of the enzyme reactions were calculated from peak areas of glycosylated products and substrates as analyzed by HPLC. To facilitate inferential statistical analysis, three parallel assays were routinely performed; the means ± SD from triplicate analyses are reported here.

AbCGT [2] = assay: Effects of pH, temperature and divalent metal ions on AbCGT activity (phloretin 17 + UDP-Glc); assay type: biochemical, Aloe barbadensis; conditions: for effect of divalent metal ion on catalytic activity of AbCGT (in words): 5 mM, phloretin (17) + UDP-Glc, 10 min; for relative activity / conversion rates of Phloretin: in presence of the divalent cation or EDTA; for relative activity: relative to CK
Protocol: To assay for the optimal reaction temperature, the reaction mixtures were incubated at pH 11.0 and different temperatures (15–60 °C). To test the necessity of divalent metal ions for AbCGT, BaCl2, CaCl2, CoCl2, CuCl2, FeCl2, MgCl2, MnCl2, ZnCl2, and EDTA were used individually at a final concentration of 5 mM. […] For quantification, three parallel assays were routinely carried out.

SMILES: COc1cc(OC)c(C(C)=O)c(OC)c1 [Compound 15]
- conversion rates, O,N,S-glycosylation (AbCGT [1]): 0%
- conversion rates, di-C-glycosylation (AbCGT [1]): 0%
- conversion rates, mono-C-glycosylation (AbCGT [1]): 0%

SMILES: O=C(OCCCc1ccccc1)c1c(O)cc(O)cc1O [Compound 18]
- conversion rates, O,N,S-glycosylation (AbCGT [1]): 0%
- conversion rates, di-C-glycosylation (AbCGT [1]): 93.8% and 92% and 91.6%
- conversion rates, mono-C-glycosylation (AbCGT [1]): 3.2% and 4.7% and 4%

SMILES: [Ba+2].[Cl-].[Cl-] [Ba^2+]
- effect of divalent metal ion on catalytic activity of AbCGT (in words) (AbCGT [2]): greatly enhanced the catalytic activity of AbCGT

SMILES: Cc1cc(=O)oc2cc(S)ccc12 [Compound 25, 7-mercapto-4-methylcoumarin]
- conversion rates, O,N,S-glycosylation (AbCGT [1]): 87% and 86% and 85.3%
- conversion rates, di-C-glycosylation (AbCGT [1]): 0%
- conversion rates, mono-C-glycosylation (AbCGT [1]): 0%

SMILES: [Fe+2] [Fe2+]
- relative activity (AbCGT [2]; reaction-1): 23.0
- relative activity (AbCGT [2]; reaction-2): 24.7
- relative activity (AbCGT [2]; reaction-3): 18.0
- conversion rates of Phloretin (AbCGT [2]; reaction-1): 11.9
- conversion rates of Phloretin (AbCGT [2]; reaction-2): 12.8
- conversion rates of Phloretin (AbCGT [2]; reaction-3): 9.3

SMILES: CCCCC(=O)c1c(O)cc(O)cc1O [Compound 16]
- conversion rates, O,N,S-glycosylation (AbCGT [1]): 0%
- conversion rates, di-C-glycosylation (AbCGT [1]): 100%
- conversion rates, mono-C-glycosylation (AbCGT [1]): 0%

SMILES: O=Cc1c(O)cc(O)cc1O [Compound 10]
- conversion rates, O,N,S-glycosylation (AbCGT [1]): 0%
- conversion rates, di-C-glycosylation (AbCGT [1]): 100%
- conversion rates, mono-C-glycosylation (AbCGT [1]): 0%

SMILES: [Cl-].[Cl-].[Mg+2] [Mg^2+]
- effect of divalent metal ion on catalytic activity of AbCGT (in words) (AbCGT [2]): greatly enhanced the catalytic activity of AbCGT

SMILES: [Cu+2] [Cu2+]
- relative activity (AbCGT [2]; reaction-1): 0.0
- relative activity (AbCGT [2]; reaction-2): 0.0
- relative activity (AbCGT [2]; reaction-3): 0.0
- conversion rates of Phloretin (AbCGT [2]; reaction-1): 0
- conversion rates of Phloretin (AbCGT [2]; reaction-2): 0
- conversion rates of Phloretin (AbCGT [2]; reaction-3): 0

SMILES: CC(=O)c1c(O)cc(O)c(C(C)=O)c1O [Compound 12]
- conversion rates, O,N,S-glycosylation (AbCGT [1]): 0%
- conversion rates, di-C-glycosylation (AbCGT [1]): 0%
- conversion rates, mono-C-glycosylation (AbCGT [1]): 100%

SMILES: [Co+2] [Co2+]
- relative activity (AbCGT [2]; reaction-1): 36.5
- relative activity (AbCGT [2]; reaction-2): 41.0
- relative activity (AbCGT [2]; reaction-3): 43.9
- conversion rates of Phloretin (AbCGT [2]; reaction-1): 18.9
- conversion rates of Phloretin (AbCGT [2]; reaction-2): 21.2
- conversion rates of Phloretin (AbCGT [2]; reaction-3): 22.7

SMILES: [Ni+2] [Ni2+]
- relative activity (AbCGT [2]; reaction-1): 13.7
- relative activity (AbCGT [2]; reaction-2): 12.0
- relative activity (AbCGT [2]; reaction-3): 15.5
- conversion rates of Phloretin (AbCGT [2]; reaction-1): 7.1
- conversion rates of Phloretin (AbCGT [2]; reaction-2): 6.2
- conversion rates of Phloretin (AbCGT [2]; reaction-3): 8

SMILES: O=C(O)CN(CCN(CC(=O)O)CC(=O)O)CC(=O)O [EDTA]
- relative activity (AbCGT [2]; reaction-1): 89.5
- relative activity (AbCGT [2]; reaction-2): 90.9
- relative activity (AbCGT [2]; reaction-3): 102.3
- conversion rates of Phloretin (AbCGT [2]; reaction-1): 46.3
- conversion rates of Phloretin (AbCGT [2]; reaction-2): 47
- conversion rates of Phloretin (AbCGT [2]; reaction-3): 52.9

SMILES: [Zn+2] [Zn2+]
- relative activity (AbCGT [2]; reaction-1): 1.9
- relative activity (AbCGT [2]; reaction-2): 3.9
- relative activity (AbCGT [2]; reaction-3): 1.9
- conversion rates of Phloretin (AbCGT [2]; reaction-1): 1
- conversion rates of Phloretin (AbCGT [2]; reaction-2): 2
- conversion rates of Phloretin (AbCGT [2]; reaction-3): 1

SMILES: [Ca+2].[Cl-].[Cl-] [Ca^2+]
- effect of divalent metal ion on catalytic activity of AbCGT (in words) (AbCGT [2]): greatly enhanced the catalytic activity of AbCGT

SMILES: [Cl][Mn][Cl] [Mn^2+]
- effect of divalent metal ion on catalytic activity of AbCGT (in words) (AbCGT [2]): greatly enhanced the catalytic activity of AbCGT

SMILES: [Ca+2].[Cl-].[Cl-] [Ca2+]
- relative activity (AbCGT [2]; reaction-1): 149.8
- relative activity (AbCGT [2]; reaction-2): 161.0
- relative activity (AbCGT [2]; reaction-3): 139.4
- conversion rates of Phloretin (AbCGT [2]; reaction-1): 77.5
- conversion rates of Phloretin (AbCGT [2]; reaction-2): 83.3
- conversion rates of Phloretin (AbCGT [2]; reaction-3): 72.1

SMILES: [Cl-].[Cl-].[Mg+2] [Mg2+]
- relative activity (AbCGT [2]; reaction-1): 157.2
- relative activity (AbCGT [2]; reaction-2): 160.4
- relative activity (AbCGT [2]; reaction-3): 167.6
- conversion rates of Phloretin (AbCGT [2]; reaction-1): 81.3
- conversion rates of Phloretin (AbCGT [2]; reaction-2): 83
- conversion rates of Phloretin (AbCGT [2]; reaction-3): 86.7

SMILES: [Ba+2].[Cl-].[Cl-] [Ba2+]
- relative activity (AbCGT [2]; reaction-1): 119.8
- relative activity (AbCGT [2]; reaction-2): 122.9
- relative activity (AbCGT [2]; reaction-3): 119.3
- conversion rates of Phloretin (AbCGT [2]; reaction-1): 62
- conversion rates of Phloretin (AbCGT [2]; reaction-2): 63.6
- conversion rates of Phloretin (AbCGT [2]; reaction-3): 61.7

SMILES: [Cl][Mn][Cl] [Mn2+]
- relative activity (AbCGT [2]; reaction-1): 162.4
- relative activity (AbCGT [2]; reaction-2): 178.6
- relative activity (AbCGT [2]; reaction-3): 171.3
- conversion rates of Phloretin (AbCGT [2]; reaction-1): 84
- conversion rates of Phloretin (AbCGT [2]; reaction-2): 92.4
- conversion rates of Phloretin (AbCGT [2]; reaction-3): 88.6
